Patent publication US12721844B2, “Chronic kidney disease treatment or prevention method” (Japan Tobacco Inc., priority 2019, dated 2026)

Tests used:
Assay type in all cases: cell-based
[1] = test system: Salmonella typhimurium (TA98, TA1537, TA100, and TA1535) and Escherichia coli (WP2 uvrA); experiment: Ames test (reverse mutation test), all bacterial tester strains; details: any of the bacterial tester strains, with and/or without S9 mix
Description: (§1) Ames Test (Reverse Mutation Test)
(§2) Two plates per treatment were used.

[2] = test system: Salmonella typhimurium TA1535; experiment: Ames test (reverse mutation test), TA1535
Description: as §1, §2

[3] = test system: Salmonella typhimurium TA98; experiment: Ames test (reverse mutation test), TA98; details: with S9 mix
Description: as §1, §2

[4] = test system: Salmonella typhimurium TA1537; experiment: Ames test (reverse mutation test), TA1537
Description: as §1, §2

[5] = test system: Salmonella typhimurium TA100; experiment: Ames test (reverse mutation test), TA100; details: with S9 mix
Description: as §1, §2

[6] = test system: Escherichia coli WP2 uvrA; experiment: Ames test (reverse mutation test), WP2 uvrA; details: for Number of revertant colonies WP2uvrA: S9 Mix −
Description: as §1, §2

[7] = with S9 mix, dose 1667 μg/plate
[8] = with S9 mix, dose 5000 μg/plate
[9] = without S9 mix, dose 6.9 μg/plate
[10] = without S9 mix, dose 21 μg/plate
[11] = without S9 mix, dose 62 μg/plate
[12] = without S9 mix, dose 185 μg/plate
[13] = without S9 mix, dose 556 μg/plate
[14] = without S9 mix, dose 1667 μg/plate
[15] = without S9 mix, dose 5000 μg/plate

CC(C)(C)Oc1cc(F)cc(-c2cc(N)nn2C(F)(F)F)c1 [Metabolite 1]
potential to induce reverse mutations [1]: did not show potential to induce reverse mutations | Number of revertant colonies TA1535 ([2]; with S9 mix, dose 2.3 μg/plate): 13 | Number of revertant colonies TA1535 ([2]; with S9 mix, dose 6.9 μg/plate): 7 | Number of revertant colonies TA1535 ([2]; with S9 mix, dose 21 μg/plate): 6 | Number of revertant colonies TA1535 ([2]; with S9 mix, dose 62 μg/plate): 8 | Number of revertant colonies TA1535 ([2]; with S9 mix, dose 185 μg/plate): 5 | Number of revertant colonies TA1535 ([2]; with S9 mix, dose 556 μg/plate): 4 | Number of revertant colonies TA1535 [2, 7]: 4 | Number of revertant colonies TA1535 [2, 8]: 2 | Number of revertant colonies TA1535 ([2]; without S9 mix, dose 2.3 μg/plate): 6 | Number of revertant colonies TA1535 [2, 9]: 9 | Number of revertant colonies TA1535 [2, 10]: 8 | Number of revertant colonies TA1535 [2, 11]: 8 | Number of revertant colonies TA1535 [2, 12]: 0 | Number of revertant colonies TA1535 [2, 13]: 0 | Number of revertant colonies TA1535 [2, 14]: 0 | Number of revertant colonies TA1535 [2, 15]: 0

Nc1cc(-c2cc(F)cc(OC(F)(F)F)c2)n(-c2cncc(F)c2)n1 [Metabolite 3]
potential to induce reverse mutations [1]: did not show potential to induce reverse mutations | Number of revertant colonies TA1535 ([2]; with S9 mix, dose 6.9 μg/plate): 8 | Number of revertant colonies TA1535 ([2]; with S9 mix, dose 21 μg/plate): 9 | Number of revertant colonies TA1535 ([2]; with S9 mix, dose 62 μg/plate): 11 | Number of revertant colonies TA1535 ([2]; with S9 mix, dose 185 μg/plate): 9 | Number of revertant colonies TA1535 ([2]; with S9 mix, dose 556 μg/plate): 4 | Number of revertant colonies TA1535 [2, 7]: 3 | Number of revertant colonies TA1535 [2, 8]: 1 | Number of revertant colonies TA1535 [2, 9]: 9 | Number of revertant colonies TA1535 [2, 10]: 11 | Number of revertant colonies TA1535 [2, 11]: 10 | Number of revertant colonies TA1535 [2, 12]: 8 | Number of revertant colonies TA1535 [2, 13]: 8 | Number of revertant colonies TA1535 [2, 14]: 0 | Number of revertant colonies TA1535 [2, 15]: 0

Nc1cc(-c2cc(F)cc(OC(F)(F)F)c2)n(-c2cncc(C(F)(F)F)c2)n1 [Metabolite 5]
potential to induce reverse mutations [1]: did not show potential to induce reverse mutations | Number of revertant colonies TA1535 ([2]; with S9 mix, dose 6.9 μg/plate): 10 | Number of revertant colonies TA1535 ([2]; with S9 mix, dose 21 μg/plate): 11 | Number of revertant colonies TA1535 ([2]; with S9 mix, dose 62 μg/plate): 10 | Number of revertant colonies TA1535 ([2]; with S9 mix, dose 185 μg/plate): 9 | Number of revertant colonies TA1535 ([2]; with S9 mix, dose 556 μg/plate): 7 | Number of revertant colonies TA1535 [2, 7]: 4 | Number of revertant colonies TA1535 [2, 8]: 2 | Number of revertant colonies TA1535 [2, 9]: 9 | Number of revertant colonies TA1535 [2, 10]: 11 | Number of revertant colonies TA1535 [2, 11]: 4 | Number of revertant colonies TA1535 [2, 12]: 7 | Number of revertant colonies TA1535 [2, 13]: 6 | Number of revertant colonies TA1535 [2, 14]: 3 | Number of revertant colonies TA1535 [2, 15]: 4

Nc1cc(-c2cccc(OCC(F)(F)F)c2)n(-c2ccc(F)cc2)n1 [Metabolite E]
potential to induce reverse mutations, TA98 [3]: showed potential to induce reverse mutations | potential to induce reverse mutations, TA1537 ([4]; with S9 mix): showed potential to induce reverse mutations | potential to induce reverse mutations, TA1537 ([4]; without S9 mix): showed potential to induce reverse mutations | potential to induce reverse mutations, TA100 [5]: showed potential to induce reverse mutations | Number of revertant colonies TA1535 ([2]; S9 Mix +, 2.3 μg/plate): 18 | Number of revertant colonies TA1535 ([2]; S9 Mix +, 6.9 μg/plate): 32 | Number of revertant colonies TA1535 ([2]; S9 Mix +, 21 μg/plate): 20 | Number of revertant colonies TA1535 ([2]; S9 Mix +, 62 μg/plate): 21 | Number of revertant colonies TA1535 ([2]; S9 Mix +, 185 μg/plate): 15 | Number of revertant colonies TA1535 ([2]; S9 Mix +, 556 μg/plate): 7 | Number of revertant colonies TA1535 ([2]; S9 Mix +, 1667 μg/plate): 0 | Number of revertant colonies TA1535 ([2]; S9 Mix +, 5000 μg/plate): 0 | Number of revertant colonies TA1535 ([2]; S9 Mix −, 2.3 μg/plate): 10 | Number of revertant colonies TA1535 ([2]; S9 Mix −, 6.9 μg/plate): 18 | Number of revertant colonies TA1535 ([2]; S9 Mix −, 21 μg/plate): 12 | Number of revertant colonies TA1535 ([2]; S9 Mix −, 62 μg/plate): 15 | Number of revertant colonies TA1535 ([2]; S9 Mix −, 185 μg/plate): 6 | Number of revertant colonies TA1535 ([2]; S9 Mix −, 556 μg/plate): 0 | Number of revertant colonies TA1535 ([2]; S9 Mix −, 1667 μg/plate): 0 | Number of revertant colonies TA1535 ([2]; S9 Mix −, 5000 μg/plate): 0 | potential to induce reverse mutations, TA1535 ([2]; with S9 mix): showed potential to induce reverse mutations | Number of revertant colonies WP2uvrA ([6]; 2.3 μg/plate): 20 | Number of revertant colonies WP2uvrA ([6]; 6.9 μg/plate): 26 | Number of revertant colonies WP2uvrA ([6]; 21 μg/plate): 24 | Number of revertant colonies WP2uvrA ([6]; 62 μg/plate): 27 | Number of revertant colonies WP2uvrA ([6]; 185 μg/plate): 22 | Number of revertant colonies WP2uvrA ([6]; 556 μg/plate): 10 | Number of revertant colonies WP2uvrA ([6]; 1667 μg/plate): 15 | Number of revertant colonies WP2uvrA ([6]; 5000 μg/plate): 7

Cc1ccc(-n2nc(N)cc2-c2cccc(OCC(F)(F)F)c2)cc1 [Metabolite F]
potential to induce reverse mutations, TA98 [3]: showed potential to induce reverse mutations | potential to induce reverse mutations, TA1537 ([4]; with S9 mix): showed potential to induce reverse mutations | potential to induce reverse mutations, TA100 [5]: showed potential to induce reverse mutations | Number of revertant colonies TA1535 ([2]; S9 Mix +, 2.3 μg/plate): 22 | Number of revertant colonies TA1535 ([2]; S9 Mix +, 6.9 μg/plate): 21 | Number of revertant colonies TA1535 ([2]; S9 Mix +, 21 μg/plate): 20 | Number of revertant colonies TA1535 ([2]; S9 Mix +, 62 μg/plate): 23 | Number of revertant colonies TA1535 ([2]; S9 Mix +, 185 μg/plate): 13 | Number of revertant colonies TA1535 ([2]; S9 Mix +, 556 μg/plate): 7 | Number of revertant colonies TA1535 ([2]; S9 Mix +, 1667 μg/plate): 0 | Number of revertant colonies TA1535 ([2]; S9 Mix +, 5000 μg/plate): 0 | Number of revertant colonies TA1535 ([2]; S9 Mix −, 2.3 μg/plate): 17 | Number of revertant colonies TA1535 ([2]; S9 Mix −, 6.9 μg/plate): 13 | Number of revertant colonies TA1535 ([2]; S9 Mix −, 21 μg/plate): 19 | Number of revertant colonies TA1535 ([2]; S9 Mix −, 62 μg/plate): 11 | Number of revertant colonies TA1535 ([2]; S9 Mix −, 185 μg/plate): 3 | Number of revertant colonies TA1535 ([2]; S9 Mix −, 556 μg/plate): 0 | Number of revertant colonies TA1535 ([2]; S9 Mix −, 1667 μg/plate): 0 | Number of revertant colonies TA1535 ([2]; S9 Mix −, 5000 μg/plate): 0 | potential to induce reverse mutations, WP2 uvrA ([6]; without S9 mix): showed potential to induce reverse mutations
